Data from PubChem BioAssay (NCI).
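Step 1: Grow cells in 96-well plates. Step 2: Expose to compound for 48 hours at 5 concentrations. Step 3: Interpolate endpoints linearly; if unreached, use highest concentration. Definition used: TGI = concentration required for complete inhibition of growth.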

What was measured:
Assay in all cases: NCI anticancer screen, dose series, 48 h
NCI-H23 lung = tested on: NCI-H23 lung
HOP-62 NSCLC = tested on: HOP-62 NSCLC
NCI/ADR-RES ovarian = tested on: NCI/ADR-RES ovarian
SK-MEL-2 melanoma = tested on: SK-MEL-2 melanoma
MDA-N = tested on: MDA-N
HCT-15 colon = tested on: HCT-15 colon
OVCAR-5 ovarian = tested on: OVCAR-5 ovarian
A549 NSCLC = tested on: A549 NSCLC
HCT-116 colon = tested on: HCT-116 colon
HS 578T breast = tested on: HS 578T breast
MCF7 breast = tested on: MCF7 breast
NCI-H460 lung = tested on: NCI-H460 lung
NCI-H522 lung = tested on: NCI-H522 lung
MDA-MB-435 = tested on: MDA-MB-435
COLO 205 colon = tested on: COLO 205 colon
MDA-MB-231 breast = tested on: MDA-MB-231 breast
UO-31 renal = tested on: UO-31 renal
OVCAR-4 ovarian = tested on: OVCAR-4 ovarian
CCRF-CEM leukemia = tested on: CCRF-CEM leukemia

Compound | TGI (NCI-H23 lung) [µM] | TGI (HOP-62 NSCLC) [µM] | TGI (NCI/ADR-RES ovarian) [µM] | TGI (SK-MEL-2 melanoma) [µM] | TGI (MDA-N) [µM] | TGI (HCT-15 colon) [µM] | TGI (OVCAR-5 ovarian) [µM] | TGI (A549 NSCLC) [µM] | TGI (HCT-116 colon) [µM] | TGI (HS 578T breast) [µM] | TGI (MCF7 breast) [µM] | TGI (NCI-H460 lung) [µM] | TGI (NCI-H522 lung) [µM] | TGI (MDA-MB-435) [µM] | TGI (COLO 205 colon) [µM] | TGI (MDA-MB-231 breast) [µM] | TGI (UO-31 renal) [µM] | TGI (OVCAR-4 ovarian) [µM] | TGI (CCRF-CEM leukemia) [µM]
O=C1CC(O)c2c(Br)sc(Br)c21 (stereo unspecified) | 57.7 | 24.5 | > 100 | 28 | 22.5 | 43 | 38.6 | 43.4 | 26.7 | 55.9 | 15.5 | 34.8 | 29.4 | 18.5 | 31 | 29.9 | 7.19 |  | 
c1ccc2c(c1)nc1n2CCCn2ccnc2-1 | > 100 | > 100 | > 100 | > 100 | > 100 | > 100 | > 100 | > 100 | > 100 | > 100 | > 100 | > 100 | > 100 |  | > 100 | > 100 | > 100 | > 100 | 
Cc1ccc(NN=NCCCCN)cc1 | > 100 | > 100 | > 100 | > 100 | > 100 | > 100 | > 100 | > 100 | > 100 | > 100 | > 100 |  | > 100 | > 100 | > 100 | > 100 | > 100 | > 100 | > 100
O=C(NC(CS)C(=O)O)c1cccc2c(=O)c3ccccc3[nH]c12 (stereo unspecified) | > 100 | > 100 | > 100 | > 100 | > 100 | > 100 | > 100 | > 100 | > 100 | > 100 | > 100 |  | > 100 | > 100 | > 100 | > 100 | > 100 | > 100 | 
COC1CC(OC2C(C)OC(OC3C(C)OC(OC4C(O)CC(O[C@H]5CC[C@@]6(C)C(=CC[C@]7(O)[C@@H]6C[C@@H](OC(=O)/C=C/c6ccccc6)[C@@]6(C)[C@]7(O)CC[C@@]6(O)C(C)=O)C5)OC4C)CC3OC)CC2OC)OC(C)C1O (stereo partly specified) | > 6.25 | > 6.25 | > 6.25 | > 6.25 | > 6.25 | > 6.25 | > 6.25 | > 6.25 | > 6.25 | > 6.25 | > 6.25 |  | > 6.25 | > 6.25 | > 6.25 | > 6.25 | > 6.25 | > 6.25 | > 6.25
NNC(=O)c1ccccc1NC(=O)/C(=C/c1ccccc1O)NC(=O)c1ccccc1 | > 100 |  | 50.8 |  | > 100 | > 100 | > 100 | > 100 | > 100 | 39.3 | 39.2 | > 100 | 47.4 | > 100 | > 100 | > 100 | 24.2 | > 100 | > 100
COc1ccc(-c2c(=O)[nH]n3c(=S)nc(-c4ccccc4)[nH]c23)cc1OC | 58.3 | 84.9 | 55.7 |  | 28.3 | 41.6 | 47.3 | > 100 | 31.4 | > 100 | 36.9 | > 100 | 37.9 | 39.2 | 31.3 | 97.8 | 33.8 | 61.1 | 31.1
Cn1nc2ccc3nccc(N4CCN(CCO)CC4)c3c2n1 | > 100 | > 100 |  | > 100 | > 100 | > 100 | > 100 | > 100 | > 100 | > 100 | > 100 | > 100 | > 100 | > 100 | > 100 | > 100 | > 100 | > 100 | > 100
Oc1ccccc1/C=N/Nc1nc(N/N=C/c2ccccc2O)nc(N/N=C/c2ccccc2O)n1 | > 100 | > 100 | > 100 | > 100 | > 100 | > 100 | > 100 | > 100 | > 100 | > 100 | > 100 | > 100 | > 100 | > 100 | > 100 | > 100 | > 100 | > 100 | 
O=C(CCc1ccccc1)ON1C(=S)NC(c2ccccc2)(c2ccccc2)C1=S | 97.6 | > 100 | > 100 | 47.8 | > 100 | > 100 | > 100 | > 100 | > 100 | > 100 | > 100 | > 100 |  | > 100 | > 100 | > 100 | > 100 | > 100 | 93.4
O=C(CC(C(=O)c1ccco1)c1ccsc1)c1ccco1 (stereo unspecified) | > 100 | > 100 | > 100 |  | > 100 | > 100 | > 100 | > 100 | > 100 | > 100 | > 100 | > 100 | > 100 | > 100 | > 100 | > 100 | > 100 | > 100 | > 100
Oc1cc(Br)cc2cccnc12 | 31.2 | 81.9 | 8.26 | > 100 | 97 | > 100 | > 100 | > 87.2 | 16.8 | > 100 |  | 17 | 7.57 | > 60 | 34.8 | 19.1 | 35.9 | > 65.3 | 4.61
c1ccc(N=C(Nc2ccccc2)N2CCCCC2)cc1 | > 100 | > 100 | > 100 | > 100 | > 100 | > 100 | > 100 | > 100 | > 100 | > 100 | > 100 | > 100 | > 100 | > 100 | > 100 |  | > 100 | > 100 | > 100
COc1ccc(C(=O)Cn2c(C(=O)/C=C/c3ccco3)nc3ccccc32)cc1 | > 100 | > 100 | 75.2 | 51.6 | > 100 | > 100 | > 100 | > 100 | > 100 | 63.8 | > 100 | > 100 |  | > 100 | 71.8 | > 100 | > 100 | > 100 | > 100
COc1cc(C)c(/C=C/C(=O)N2C(=O)OC[C@@H]2c2ccccc2)c(C)c1 | > 100 | > 100 | > 100 | > 100 | > 100 | > 100 | > 100 | > 100 | > 100 | > 100 |  |  | > 100 | > 100 | > 100 | > 100 | > 100 | > 100 | > 100
Cc1ccc2c(=O)c3cccc(CC(=O)O)c3[nH]c2c1C | > 100 | > 100 | > 100 |  | > 100 | > 100 |  | > 100 | > 100 | > 100 | > 100 | > 100 | > 100 | > 100 | > 100 | > 100 | > 100 | > 100 | > 100
CN(C)c1ccc(/C=c2/c3ccccc3n3nc4ccccc4c23)cc1 | > 100 | > 100 | > 100 | > 100 | 33.6 | > 100 | > 100 | > 100 | > 100 | > 100 | > 100 | > 100 | 31.9 | > 100 | 50.9 | > 100 | > 100 |  | 76.5
COc1ccc(C2CC(c3ccccc3)=Nc3c(-c4ccccc4)nnn32)cc1 (stereo unspecified) | > 100 | > 100 | > 100 | > 100 | > 100 | > 100 | > 100 | > 100 | > 100 | > 100 | > 100 | > 100 | 69.3 | > 100 | > 100 | > 100 | > 100 |  | > 100
CC(=O)Nc1ccc(NC(=O)c2c(Cl)c(Cl)c(Cl)c(Cl)c2-c2nc3ccccc3[nH]2)cc1 | > 100 | > 100 |  |  | > 100 | > 100 | > 100 | > 100 | > 100 | > 100 | > 100 | > 100 | > 100 | > 100 | 39.8 |  | > 100 | > 100 | > 100
COC(=O)C1(c2cc3ccccc3n2S(=O)(=O)c2ccccc2)CC2C=CC1NC2 (stereo unspecified) | 6.85 | 3.92 | 6.95 | 3.63 | 6.23 | 3.93 | 6.37 | 10.9 | 6.16 | > 25.9 | 3.06 | > 29.6 |  | 3.86 | 4.61 | 3.67 | 2.86 | 6.07 | 
